Measurements reported in patent US20130184272A1, “DIABETES THERAPEUTIC AGENT” (TAKEDA PHARMACEUTICAL COMPANY LIMITED, priority 2010, published 2013).

Experiments:
[1] = test system: Mouse-derived myoblast line C2C12 cell; assay: Cell differentiation promoting activity in myoblast (creatine kinase activity); format: cell-based; settings: Mus musculus, C2C12, 48 h; compound at 0.01 μM (**); 2 days; without compound = 100%; read-out: creatine kinase activating action (%)
In short: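 C2C12 myoblasts at ≥90% subconfluence were switched to high-glucose DMEM with 2% horse serum plus compound for 2 days. Creatine kinase in NP-40/freeze-thaw lysates indexed differentiation, given as % of the DMSO control. Compounds were tested mostly at 1 μM, some at 10 μM or 0.01 μM.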

[2] = test system: Female KKA^y mice; assay: Anti-diabetes action and dyslipidemia improving effect in KKA^y mouse; format: in vivo; settings: mixed feed dose 0.01 %, 2 weeks; control group = 100
Method: Female KKA^y mice (12-week-old, CLEA Japan, Inc.) were bred while allowing free ingestion of both feed and water. The mice were bred for acclimation with powder CE-2 (CLEA Japan, Inc.) from 2 weeks before administration of the compound. The body weight and plasma markers were measured and, at 14 weeks of age, they were divided such that the measured values were uniform with those of the control group. The compound of Reference Example 1, 2, 7, 8, 9 or 22 was administered for 2 weeks in a mixed feed (0.01-0.0001%). On the last day, plasma levels of glucose, insulin, total cholesterol and neutral lipid were measured.

[3] = test system: succinic acid dehydrogenase activity of mitochondria; assay: Succinic acid dehydrogenase activity in muscle cell; format: cell-based, Mouse; settings: for succinic acid dehydrogenase activity: two days, control group 100
Method: • (1) In the same manner as in Example 1, C2C12 cells were cultured in a growth medium to not less than 90% confluence. • (2) The medium was exchanged with a differentiation medium, and the cells were cultured until observation of myotube formation under a microscope. • (3) The compounds of Reference Example 1 and Reference Example 7 were added, and the cells were cultured for two days. • (4) ATP content was measured using Cell Titer-Glo™ Luminescence cell viable assay (Promega) and succinic acid dehydrogenase activity of mitochondria was measured using Cell Counting Kit-8 (Dojin). The data of Table 17 show mean±standard deviation at n=3-4 (n is the number of samples).

[4] = test system: Male C57BL/6J mice on a high-fat diet; assay: Antiobesity, dyslipidemia and diabetes improving effect in mouse fed with high-fat diet; format: in vivo; design: plasma leptin (mg/dL): unit not given here; settings: for epididymal fat mass / gastrocnemius muscle weight (g/100 g body weight) / hepatocyte weight / mesenteric fat mass: Day 38
Method: Male C57BL/6J mice (CLEA Japan, Inc.) were bred from 5-week-old on a high-fat diet (D12451, research diet) while allowing free ingestion of both feed and water to prepare obesity mice. The mice were bred for acclimation for 2 weeks from 21-week-old. The body weight and plasma markers were measured when 23-week-old, the mice were divided into 6 groups (6 per group) such that the values thereof were uniform, and Reference Example 1 (0.01-0.1 mg/kg) or Reference Example 7 (1-3 mg/kg) was orally administered for 5 weeks. After 14 and 28 days, plasma levels of total cholesterol, neutral lipid, glucose, insulin, leptin, adiponectin and glycated hemoglobin were measured. On the last day, the mice were autopsied, and weights of mesenteric fat, epididymal fat, liver and gastrocnemius muscle were measured. The data of Table 18 show mean±standard deviation at n=5-6 (n is the number of samples).

## Cn1ncc2c1-c1c(Oc3cccnc3)sc(C(N)=O)c1CC2 [Ref. Ex. 7, 1-methyl-8-(pyridin-3-yloxy)-4,5-dihydro-1H-thieno[3,4-g]indazole-6-carboxamide]
[1]
  activity at 0.01 µM: 183%
[2]
  plasma glucose (%): 40.3 ± 4.5%
  plasma insulin (%): 2.9 ± 1.7%
  plasma neutral lipid (%): 33.9 ± 8.6%
  plasma total cholesterol (%): 64.8 ± 12.0%
[3]
  succinic acid dehydrogenase activity (in words): increased
[3]; compound 1 nM
  succinic acid dehydrogenase activity: 111 ± 3
[3]; compound 10 nM
  succinic acid dehydrogenase activity: 120 ± 4
[3]; compound 100 nM
  succinic acid dehydrogenase activity: 131 ± 7
[4]; 1 mg/kg oral
  average amount of ingestion: 3.6 ± 0.2 g/day
  body weight (g) change: 4.0 ± 1.5 g
  epididymal fat mass: 0.78 ± 0.11 g
  gastrocnemius muscle weight (g/100 g body weight): 0.360 ± 0.014 g/100 g body weight
  hepatocyte weight: 1.85 ± 0.30 g
  mesenteric fat mass: 0.95 ± 0.14 g
[4]; 1 mg/kg oral, Day 0
  body weight: 41.2 ± 1.8 g
  glycated hemoglobin (%): 4.4 ± 0.1%
  plasma adiponectin (μg/dL)): 18.3 ± 2.8 µg/dL
  plasma glucose: 168.4 ± 29.1 mg/dL
  plasma insulin: 5.3 ± 3.5 ng/mL
  plasma leptin (mg/dL): 61.4 ± 18.1
  plasma neutral fats: 69.8 ± 35.0 mg/dL
  plasma total cholesterol: 227.2 ± 21.2 mg/dL
[4]; 1 mg/kg oral, Day 14
  glycated hemoglobin (%): 4.2 ± 0.2%
  plasma adiponectin (μg/dL)): 14.9 ± 3.4 µg/dL
  plasma glucose: 157.5 ± 19.4 mg/dL
  plasma insulin: 7.8 ± 3.3 ng/mL
  plasma leptin (mg/dL): 86.9 ± 12.0
  plasma neutral fats: 68.8 ± 16.0 mg/dL
  plasma total cholesterol: 213.8 ± 13.0 mg/dL
[4]; 1 mg/kg oral, Day 28
  glycated hemoglobin (%): 4.0 ± 0.1%
  plasma adiponectin (μg/dL)): 12.2 ± 2.3 µg/dL
  plasma glucose: 149.7 ± 16.9 mg/dL
  plasma insulin: 12.3 ± 4.9 ng/mL
  plasma leptin (mg/dL): 96.1 ± 10.2
  plasma neutral fats: 62.1 ± 26.1 mg/dL
  plasma total cholesterol: 216.8 ± 20.7 mg/dL
[4]; 1 mg/kg oral, Day 37
  body weight: 45.6 ± 3.0 g
[4]; 3 mg/kg oral
  average amount of ingestion: 3.7 ± 0.2 g/day
  body weight (g) change: 2.3 ± 2.3 g
  epididymal fat mass: 0.77 ± 0.15 g
  gastrocnemius muscle weight (g/100 g body weight): 0.375 ± 0.020 g/100 g body weight
  hepatocyte weight: 1.74 ± 0.30 g
  mesenteric fat mass: 0.77 ± 0.24 g
[4]; 3 mg/kg oral, Day 0
  body weight: 41.1 ± 1.7 g
  glycated hemoglobin (%): 4.6 ± 0.1%
  plasma adiponectin (μg/dL)): 17.0 ± 2.9 µg/dL
  plasma glucose: 176.9 ± 30.1 mg/dL
  plasma insulin: 5.1 ± 2.3 ng/mL
  plasma leptin (mg/dL): 62.3 ± 10.9
  plasma neutral fats: 71.6 ± 28.8 mg/dL
  plasma total cholesterol: 231.9 ± 29.9 mg/dL
[4]; 3 mg/kg oral, Day 14
  glycated hemoglobin (%): 4.0 ± 0.3%
  plasma adiponectin (μg/dL)): 15.2 ± 3.0 µg/dL
  plasma glucose: 172.8 ± 32.3 mg/dL
  plasma insulin: 6.2 ± 3.0 ng/mL
  plasma leptin (mg/dL): 73.5 ± 12.6
  plasma neutral fats: 47.0 ± 9.2 mg/dL
  plasma total cholesterol: 192.8 ± 12.5 mg/dL
[4]; 3 mg/kg oral, Day 28
  glycated hemoglobin (%): 4.0 ± 0.2%
  plasma adiponectin (μg/dL)): 12.8 ± 0.8 µg/dL
  plasma glucose: 155.9 ± 12.7 mg/dL
  plasma insulin: 5.8 ± 1.4 ng/mL
  plasma leptin (mg/dL): 77.3 ± 16.3
  plasma neutral fats: 53.6 ± 35.6 mg/dL
  plasma total cholesterol: 194.1 ± 18.4 mg/dL
[4]; 3 mg/kg oral, Day 37
  body weight: 44.0 ± 2.4 g
[4]; obese mouse model fed with a high-fat diet
  body weight (in words): clear body weight decreasing action
